According to article PMC9864514, “Evaluation of the Local Anesthetic Activity, Acute Toxicity, and Structure–Toxicity Relationship in Series of Synthesized 1-Aryltetrahydroisoquinoline Alkaloid Derivatives In Vivo and In Silico” (Molecules, 2023):
Entries after “also recorded” stand apart in the source; their conditions may differ.

Tests used:
Type in all cases: in vivo
rabbit eye cornea = assay: Local anesthetic activity, rabbit eye cornea terminal anesthesia test; settings: for Onset of Anesthesia / Total Duration of Anesthesia / Duration of Complete Anesthesia / Duration of complete anesthesia, times longer than lidocaine: rabbit corneal model; for Onset of Anesthesia / Total Duration of Anesthesia / Duration of Complete Anesthesia: 1% aqueous solution; for Duration of Complete Anesthesia: percentage of the anesthetic activity of lidocaine (=100%); for Duration of complete anesthesia, times longer than lidocaine: 1% concentration; for Local irritant effects on rabbit eyes: concentrations studied
Procedure: Local anesthetic activity was evaluated using the rabbit eye cornea terminal anesthesia test on 2.0–2.5 kg male chinchilla rabbits after introduction of total 0.4 mL (0.2 mL twice with an interval of 30 s) of 1.0 % solutions of the studied substances. Lidocaine was used as an etalon drug. Each substance was tested on three rabbits.

[1] = Acute toxicity and resorptive action in white mice, intragastric administration; settings: mouse, in vivo, po, intragastric administration, N = 10, Litchfield–Wilcoxon
Procedure: (§1) The acute toxicity and resorptive action were determined in white mice weighing 20–24 g by gradual oral administration at doses of 1–5000 mg/kg.
(§2) The animals were kept under standard nursery conditions with a natural 12-h light-dark cycle, at an air temperature of 20 ± 2 °C. The animals had unlimited access to food and water. The experiments were performed in accordance with the International Convention for the Protection of Vertebrate Animals used for Experimental and Scientific Purposes (Strasbourg, 1986). Each substance was tested on 10 mice and LD50 was determined graphically by the well-known Litchfield–Wilcoxon method.

white mice = assay: as above; settings: for Decrease of acute toxicity compared with 3a: intragastric, relative to parent compound 3a
Procedure: as §1, §2

SMILES | Onset of Anesthesia (rabbit eye cornea) [min] | Total Duration of Anesthesia (rabbit eye cornea) [min] | Duration of Complete Anesthesia (rabbit eye cornea) | LD50 [1] [mg/kg] | Decrease of acute toxicity compared with 3a (white mice) | Duration of complete anesthesia, times longer than lidocaine (rabbit eye cornea) [times] | Local irritant effects on rabbit eyes (rabbit eye cornea) | LD50 (white mice; intragastric administration, N = 10, Litchfield–Wilcoxon)
COc1cc(Br)c(C2NCCc3cc(OC)c(OC)cc32)cc1OC (centres unmarked) [Compound 3g, 1-(2′-Bromo-4′,5′-dimethoxyphenyl)-6,7-dimethoxy-1,2,3,4-tetrahydroisoquinoline] | 2.0 ± 1.0 | 44.0 ± 3.5 | +90% | 290 | no significant change in acute toxicity | – | – | –
COc1cc(Br)c(C2NCCc3cc(OC)c(OC)cc32)cc1O (centres unmarked) [Compound 3h, 1-(2′-Bromo-5′-hydroxy-4′-methoxyphenyl)-6,7-dimethoxy-1,2,3,4-tetrahydroisoquinoline] | 1.0 ± 0.4 | 40.0 ± 3.2 | +170% | 550 | about 2 fold | 1.7 | – | –
COc1cc2c(cc1OC)C(c1ccc3c(c1)OCO3)NCC2 (centres unmarked) [Compound 3i, 1-(3′,4′-Methylenedioxyphenyl)-6,7-dimethoxy-1,2,3,4-tetrahydroisoquinoline] | 2.0 ± 0.4 | 57.0 ± 3.7 | +80% | 280 | did not lead to a change in acute toxicity | – | – | –
COc1cc2c(cc1OC)C(c1cc3c(cc1Br)OCO3)NCC2 (centres unmarked) [Compound 3j, 1-(2′-Bromo-4′,5′-methylenedioxyphenyl)-6,7-dimethoxy-1,2,3,4-tetrahydroisoquinoline] | 2.0 ± 1.0 | 52.0 ± 4.0 | +90% | 730 | 2.5 fold | – | – | –
COc1cc2c(cc1OC)C(c1cc3c(cc1Cl)OCO3)NCC2 (centres unmarked) [Compound 3k, 1-(4′,5′-Methylenedioxy-2′-chlorophenyl)-6,7-dimethoxy-1,2,3,4-tetrahydroisoquinoline] | 2.0 ± 1.2 | 43.0 ± 4.5 | +90% | 520 | 1.86 fold | – | – | –
COc1cc2c(cc1OC)C(c1cc(Br)c(O)c(OC)c1)NCC2 (centres unmarked) [Compound 3l, 1-(5′-Bromo-4′-hydroxy-3′-methoxyphenyl)-6,7-dimethoxy-1,2,3,4-tetrahydroisoquinoline] | 5.0 ± 1.2 | 89.0 ± 3.0 | +140% | 1560 | 5.6 fold | 1.4 | – | –
COc1cc2c(cc1OC)C(c1cccc([N+](=O)[O-])c1)NCC2 (centres unmarked) [Compound 3n, 1-(3′-Nitrophenyl)-6,7-dimethoxy-1,2,3,4-tetrahydroisoquinoline] | 3.0 ± 1.0 | 37.0 ± 3.2 | +260% | 460 ± 598 | – | 2.6 | eye irritation and redness; also recorded: reversible irritation and redness of the eyes | 525 (460.5 ± 598.5) mg/kg
COc1cc2c(cc1OC)C(c1cccc(Br)c1)NCC2 (centres unmarked) [Compound 3o, 1-(3′-Bromophenyl)-6,7-dimethoxy-1,2,3,4-tetrahydroisoquinoline] | 2.0 ± 0.4 | 115.0 ± 3.8 | +130% | 710 | 2.5–2.6 fold | – | – | –
COc1cc2c(cc1OC)C(c1ccccc1OC)NCC2 (centres unmarked) [Compound 3p, 1-(2′-Methoxyphenyl)-6,7-dimethoxy-1,2,3,4-tetrahydroisoquinoline] | 3.0 ± 0.8 | 67.0 ± 3.6 | +300% | 300 | did not result in a significant decrease of toxicity | 3.0 | – | –
COc1cc2c(cc1OC)C(c1ccc(N(C)C)cc1)NCC2 (centres unmarked) [Compound 3q, 1-(4′-Dimethylaminophenyl)-6,7-dimethoxy-1,2,3,4-tetrahydroisoquinoline] | 2.0 ± 0.6 | 45.0 ± 4.1 | +220% | 1250 | ~4.5 fold | 2.2 | – | –
COc1cc2c(cc1OC)C(c1ccc(Cl)cc1)NCC2 (centres unmarked) [Compound 3r, 1-(4′-Chlorophenyl)-6,7-dimethoxy-1,2,3,4-tetrahydroisoquinoline] | 2.0 ± 0.6 | 35.0 ± 3.4 | +150% | 740 | 2.5–2.6 fold | – | eye irritation and redness; also recorded: reversible irritation and redness of the eyes | –
COc1cc2c(cc1OC)C(c1ccc(N)cc1)NCC2 (centres unmarked) [Compound 4a, 1-(4′-Aminophenyl)-6,7-dimethoxy-1,2,3,4-tetrahydroisoquinoline] | 2.0 ± 0.7 | 25.0 ± 4.0 | +40% | 1050 | 3.75 fold | – | eye irritation and redness; also recorded: reversible irritation and redness of the eyes | –
